We go through three molecules from patent publication US20040048831A1, “Verifiable absorption drug delivery form based on cyclodextrins” (priority 2002, published 2004).

The nature of series [1]: Release of drugs from paper disk dosage forms in vitro (continuous elution by water, spectrophotometry). In kind it is physicochemical. The conditions noted are these: eluted disks dried and eluted by methanol (50 ml) overnight.
Assay in series [2]: as above
In kind it is physicochemical. The conditions noted are these: first milliliters of eluent. As for the experimental part: To prepare the dosage form, cyclodextrin was dissolved in water (50% solutions for HPBCD, 20% for gamma-cyclodextrin and sulfopropyl beta-cyclodextrin), or aqueous ethanol for HPBCD (50% solution). This solution was saturated with drug by intensive stirring for two hours. The suspension was then filtered and then spotted on paper or filtration cloth and air dried.
Paper disks of 2 cm diameter and carrying drug: cyclodextrin inclusion complexes in the amounts specified in Table 1 below were continuously eluted by water and the amount of drug eluted was measured by spectrophotometry. For progesterone, a wavelength of 240 nm was used. Data had to be corrected since paper contains a minor component which elutes rapidly and absorbs at this wavelength. Prewashing of paper removes this complication. Amphotericin B content was analyzed using wavelength 410 nm and data previously published (M. Kajtar et al., Biopolymers, 28, 1585-1596, 1989).

Series [3] can be described thus: Release of cyclodextrin and drug from paper disk dosage forms in vivo (kept under the tongue, residue extracted). The conditions noted are these: for Progesterone left in disk, % of the originally present progesterone: progesterone:HPBCD paper disk, non-released disk = 100%. As for the experimental part: Paper disks of 2 cm diameter containing only HPBCD were kept under the tongue for 3 to 4 minutes and dried after retrieval. The disks were then extracted by water (50 ml) overnight and soluble carbohydrates in the extracts measured using anthrone reagent (Methods in Carbohydrate Chemistry, Volume 1, page 523, wavelength used 620 nm). HPBCD is reactive toward this reagent. The control paper disk with HPBCD, but not released under the tongue, registered 100 units (arbitrary scale); the empty paper disk registered 1.8 units; disks loaded with HPBCD and released for 3 to 4 minutes under the tongue, 1.6 units.
Paper disks carrying progesterone:HPBCD combination, prepared as in Example 2 were kept under the tongue and, after retrieval, dried and extracted by water (50 ml) overnight. Progesterone in the extracts was measured by spectrophotometry using methods and precautions as in Example 2. When progesterone extracted from the original disks (i.e., not released under tongue) is taken as 100%, disks which were released for 5 minutes under the tongue yielded 3.8% of the originally present progesterone, and disks released for 10 minutes, 3.2%. Several minutes under the tongue thus releases nearly all drug into the oral cavity.

Turning to `C[C@@H]1[C@H](O)[C@@H](C)/C=C/C=C/C=C/C=C/C=C/C=C/C=C/[C@H](O[C@@H]2O[C@H](C)[C@@H](O)[C@H](N)[C@@H]2O)C[C@@H]2O[C@](O)(C[C@@H](O)C[C@@H](O)[C@H](O)CC[C@@H](O)C[C@@H](O)CC(=O)O[C@H]1C)C[C@H](O)[C@H]2C(=O)O` [Amphotericin B], in series [1], the “Additional drug release from eluted, dried disks by methanol” value is listed as “further drug was release”. In addition, the “Completeness of release of drug by water from cyclodextrin paper disks” value in series [2] is “only partial”.

Regarding `CC(O)COC[C@H]1O[C@@H]2O[C@H]3[C@H](O)[C@@H](O)[C@@H](O[C@H]4[C@H](O)[C@@H](O)[C@@H](O[C@H]5[C@H](O)[C@@H](O)[C@@H](O[C@H]6[C@H](O)[C@@H](O)[C@@H](O[C@H]7[C@H](O)[C@@H](O)[C@@H](O[C@H]8[C@H](O)[C@@H](O)[C@@H](O[C@H]1[C@H](O)[C@H]2O)O[C@@H]8COCC(C)O)O[C@@H]7COCC(C)O)O[C@@H]6COCC(C)O)O[C@@H]5COCC(C)O)O[C@@H]4COCC(C)O)O[C@@H]3COCC(C)O` (stereo partly drawn) [HPBCD, hydroxypropyl beta-cyclodextrin], the “Time for release of HPBCD into mouth” value in series [3] (paper disk under the tongue) is given as “completed within a few minutes”.

In the case of `CC(=O)[C@H]1CC[C@H]2[C@@H]3CCC4=CC(=O)CC[C@]4(C)[C@H]3CC[C@]12C` [Progesterone], the “Additional drug release from eluted, dried disks by methanol” value in series [1] was “No additional release was observed”. Besides, the “Completeness of release of drug by water from cyclodextrin paper disks” value in series [2] is listed as “complete”. The entries for the “Progesterone left in disk, % of the originally present progesterone” value in series [3] (released 5 minutes under the tongue) and in series [3] (released 10 minutes under the tongue) were 3.8% and 3.2%, respectively.
